Test results published in patent US20070037143A1, “Method for screening for protease modulators” (DIGILAB BioVisioN GmbH, priority 2005, published 2007).
“Also recorded” adds a separate entry of the source.

What was measured:
Type in all cases: in vivo
[1] = target: T1, DPP4 (Rattus norvegicus, UniProt P14740); assay: Peptide display (RP chromatography + MALDI-MS) of rat plasma: Spearman correlation of peptide/protein signals with inhibitor concentration or before/after change in DPP4 activity; set-up: key to Correlation of mass spectrometric signal with concentration of inhibitor AB & Contr.In. A / Correlation of mass spectrometric signal with concentration of inhibitor Contr.In. C: With positive (pos.) correlation regarding the inhibitor concentration is meant that higher concentrations of inhibitor result in higher concentration of a peptide or protein
T1 construct: from tissue; host or cells: Wistar rats dosed in vivo; activity read in tail-vein plasma
T1 sequence (P14740 whole entry): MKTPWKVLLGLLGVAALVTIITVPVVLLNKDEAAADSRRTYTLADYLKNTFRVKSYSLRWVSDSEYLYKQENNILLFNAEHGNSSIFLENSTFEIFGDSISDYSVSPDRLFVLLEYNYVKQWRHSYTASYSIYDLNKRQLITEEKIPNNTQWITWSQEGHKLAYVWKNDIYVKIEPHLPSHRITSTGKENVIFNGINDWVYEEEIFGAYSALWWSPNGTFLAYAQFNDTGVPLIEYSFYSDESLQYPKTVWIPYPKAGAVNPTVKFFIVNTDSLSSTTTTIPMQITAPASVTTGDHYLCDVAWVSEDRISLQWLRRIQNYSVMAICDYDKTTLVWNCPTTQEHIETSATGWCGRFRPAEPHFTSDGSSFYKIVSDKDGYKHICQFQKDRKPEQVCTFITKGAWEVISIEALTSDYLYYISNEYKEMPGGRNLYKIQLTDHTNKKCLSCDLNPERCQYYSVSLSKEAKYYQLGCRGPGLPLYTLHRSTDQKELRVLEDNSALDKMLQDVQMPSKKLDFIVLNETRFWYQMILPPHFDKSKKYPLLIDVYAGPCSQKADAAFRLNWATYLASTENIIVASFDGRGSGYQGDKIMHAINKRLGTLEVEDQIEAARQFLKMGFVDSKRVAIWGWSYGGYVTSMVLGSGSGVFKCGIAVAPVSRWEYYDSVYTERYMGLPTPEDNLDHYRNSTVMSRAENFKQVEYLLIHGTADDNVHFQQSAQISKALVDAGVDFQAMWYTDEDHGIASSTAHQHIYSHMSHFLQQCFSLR
Experimental: The DPP4 inhibitor AB192 (bis(4-acetamidophenyl)-1-(S)-prolylpyrrolidine-2-(R,S)-phosphonate) (J. Med. Chem., 1999, 42:1041-52) was kindly provided by Ingrid De Meester (University of Antwerp, Campus Drie Eiken, Department of Pharmaceutical Sciences, Universiteitsplein 1, B-2610 Wilrijk-Antwerpen). AB192, an irreversible inhibitor of DPP4, was used at 0.32, 1.00 and 3.2 mg/kg body weight. The control inhibitor (Contr.In.) was used at 0.3, 1.0 and 3.0 mg/kg body weight. Eight week old Wistar rats (315-320 g body weight) received either of the inhibitors (8 animals for each inhibitor concentration of each inhibitor) or were treated with vehicle (50 mM sodium phosphate buffer; pH 7.4) (4 animals). The rats received the inhibitors or vehicle by subcutaneous injection into the fat tissue of the neck using a 27-G needle. Blood samples (100 μl) for DPP4 activity measurements were drawn from the tail vein before injection and at the end of the experiment 1 h after injection of the DPP4 inhibitors. At this point, the rats were anaesthetised using a mixture of ketamin (9 mg/100 g body weight) and rompun (0.2 mg/100 g body weight). Additionally, rats received a short burst of ether for quick anaesthesia. The thorax was opened immediately and 4 to 6 ml of blood taken from the right ventricle into ethylenediaminetetraacetic acid (EDTA) laminated syringes and transferred into a 15 ml tube filled with EDTA at a final concentration of 2.5 mg/ml.
Rat blood samples were consecutively centrifuged at room temperature for 10 min at 2000×g and for 15 min at 2500×g. The resulting platelet poor plasma was stored at −80° C. until analysis. For reduction of the protein load of the plasma, the plasma sample was diluted 1:4 with 8 M guanidinium chloride solution at room temperature and for quality control purposes a peptide standard mix was added resulting in a final concentration of 300 to 800 pM of each individual standard peptide added. The peptides added were: substance P, somatostatin-14, neurotensin, renin substrate (porcine), adrenocorticotropic hormone (ACTH)(1-17), big endothelin-1(19-38), ACTH(18-39), beta-Endorphin(6-31), adrenocorticotropic hormone(1-24), calcitonin (human), insulin B chain oxide (bovine), ACTH(7-38), pro34-neuropeptide Y (porcine) and growth hormone-releasing factor (GRF)(1-44). All Peptides or proteins represent the human sequence, if not indicated to the contrary and the numbers in brackets following some of the peptides indicate the amino acid positions of the complete sequence including said peptide. Prior to use, the ultrafiltration devices are rinsed with distilled water. Ultrafiltration was done using Amicon Ultra filter devices with a molecular weight cut-off of 50 kDa (Millipore, Bedford, USA), which were centrifuged according to the manufacturer's instructions at 4000×g for 60 min at room temperature in a swinging bucket rotor. Finally, the pH of the filtrate was adjusted to pH 2 to 3 using concentrated HCl (30% v/v). If the sample (filtrate) was not directly further processed, it was stored at −80° C. A 750 μl-equivalent of plasma was used per chromatographic run.
The separation of peptides and/or proteins was done using a Source 5RPC, 4,6×150 mm reverse phase chromatography column (Amersham Biosciences Europe GmbH, Freiburg, Germany). Buffer A was 0.06% (v/v) (volume per volume) trifluoroacetic acid (TFA) in distilled water and buffer B was 0.05% (v/v) TFA, 80% (v/v) acetonitrile in distilled water. The chromatography took place at 33° C. using a HP 1100 HPLC with a micro flow cell both supplied by Agilent Technologies, Böblingen, Germany. The samples were diluted to 5.5 ml using a 0.1% (v/v) stock solution of trifluoroacetic acid. Prior to chromatography, the samples were centrifuged at 4° C. and 15 000×g for 10 minutes and finally 5 ml of sample were loaded onto the chromatography column representing an equivalent of 750 μl plasma. […]

[2] = target: T1, DPP4; assay: Panels of pairs of peptides/proteins (linear model): correlation to inhibitor concentration or to decreased DPP4 activity; settings: for Correlation coefficient of Panel 1 + 2: panel of both peptides/proteins; for Correlation coefficient of Pep./Prot. 1: single peptide/protein 1 of the panel; for Correlation coefficient of Pep./Prot. 2: single peptide/protein 2 of the panel
Experimental: In addition, networks of peptides and/or proteins were calculated. This allows, for example, to identify panels of peptides and/or proteins, which enable to better reflect the biological impact of the inhibitors (FIG. 5/Table 2). Combining two peptides and/or proteins in these panels increased the reliability of the prediction (e.g. concentration of inhibitor, “before/after change in DPP4 activity”) possible by evaluating these peptide/protein panels. These panels were determined by comprehensively combining peptide and/or protein signals to pairs of peptide and/or protein signals. In a “linear model”, the signal intensities of the peptide and/or protein pairs were treated as independent variables, and the endpoint DPP4 concentration (or change in DPP4 activity) was treated as the dependent variable. The “linear model” was then calculated (e.g. with R-package, version 2.00 (R Foundation for Statistical Computing, Vienna, Austria) or S-plus, version 6.0 (Insightful AG, Reinach, Switzerland), etc.).
In addition to panels of peptides and/or proteins, surrogate networks of peptides and/or proteins can also be predicted, which peptides and/or proteins can replace each other, i.e. the peptides and/or proteins are surrogates of each other. Using this method it is, for example, possible to identify peptides and/or proteins which have the same diagnostic value. […] In addition, it is possible to choose those peptides and/or proteins of a surrogate network, which can be measured with the least effort. Both strategies can be combined to save time, resources, valuable or limited patient samples, etc. For determining these surrogate networks and peptide and/or protein panels, methods such as the methods described in PCT/EP 2005/000090 can be used.

[3] = target: T1, DPP4; assay: DPP4 activity in plasma of rats injected with DPP4 inhibitors (G-P-4 nitroanilide substrate, 405 nm); settings: Wistar rats, s.c., 0.3-3.2 mg/kg, 1 h after injection; FIG. 2
Experimental: The DPP4 inhibitor AB192 (bis(4-acetamidophenyl)-1-(S)-prolylpyrrolidine-2-(R,S)-phosphonate) (J. Med. Chem., 1999, 42:1041-52) was kindly provided by Ingrid De Meester (University of Antwerp, Campus Drie Eiken, Department of Pharmaceutical Sciences, Universiteitsplein 1, B-2610 Wilrijk-Antwerpen). AB192, an irreversible inhibitor of DPP4, was used at 0.32, 1.00 and 3.2 mg/kg body weight. The control inhibitor (Contr.In.) was used at 0.3, 1.0 and 3.0 mg/kg body weight. Eight week old Wistar rats (315-320 g body weight) received either of the inhibitors (8 animals for each inhibitor concentration of each inhibitor) or were treated with vehicle (50 mM sodium phosphate buffer; pH 7.4) (4 animals). The rats received the inhibitors or vehicle by subcutaneous injection into the fat tissue of the neck using a 27-G needle. […]
Blood samples taken from the tail vein were immediately centrifuged (2000×g; 10 min at room temperature) and plasma stored at −20° C. […] The 96-well plate was read immediately using a Tecan Genios microplate reader (Tecan Deutschland GmbH, Crailsheim, Germany) and measurements were taken at 37° C. over a period of time of 1 h at a wavelength of 405 nm. From the measured values the blank signal (plasma+HEPES buffer) was subtracted and data calculated as Units/litre (U/l). […]

[4] = with concentration of AB (AB192 inhibitor)
[5] = with concentration of AB and Contr.In.
[6] = with DPP4 activity in presence of AB (AB192 inhibitor)

## PPGPPGPPGPPGPPS [Peptide/Protein No. 3]
[1]; Spearman, concentration of control inhibitor, but not of AB192, n=27, |r|>0.61, rat plasma
  Correlation of mass spectrometric signal with concentration of inhibitor Contr.In. C: pos.
[1]; rat plasma, FIG. 4A
  correlation of mass spectrometric signal with the amount of control inhibitor (Contr.In.) given to the rat: positively
[2]; [4]
  Correlation coefficient of Panel 1 + 2: 0.66
  Correlation coefficient of Pep./Prot. 1: −0.44
  Correlation coefficient of Pep./Prot. 2: 0.48

## LPGPPGERGGPGSRGFPGADGVAGP [Peptide/Protein No. 2]
[1]; Spearman, correlates with concentration of AB192 and of control inhibitor, n=49, |r|>0.5, rat plasma 1 h after s.c. injection
  Correlation of mass spectrometric signal with concentration of inhibitor AB & Contr.In. A: pos.
[1]; rat plasma, FIG. 3B
  correlation of mass spectrometric signal with the amount of the DPP4 inhibitor AB192 or the control inhibitor given to the rat: positively
[2]; [5]
  Correlation coefficient of Panel 1 + 2: 0.59
  Correlation coefficient of Pep./Prot. 1: −0.52
  Correlation coefficient of Pep./Prot. 2: −0.52

## GAPGQNGEPGAKGERGAPGEKGEGGPPG [Peptide/Protein No. 45]
[1]; Spearman, before/after change in DPP4 activity with control inhibitor, but not AB192, n=31, |r|>0.61, rat plasma
  Correlation of mass spectrometric signal with DPP4 inhibition by Contr.In. F: neg.
[1]; plasma of rats treated with control inhibitor (Contr.In.), FIG. 3A, 4B
  correlation of mass spectrometric signal with the DPP4 activity measured in the same samples: negatively
[2]; [6]
  Correlation coefficient of Panel 1 + 2: 0.54
  Correlation coefficient of Pep./Prot. 1: −0.38
  Correlation coefficient of Pep./Prot. 2: −0.4

## CC(=O)Nc1ccc(OP(=O)(Oc2ccc(NC(C)=O)cc2)C2CCCN2C(=O)[C@@H]2CCCN2)cc1 (stereo partly drawn) [AB192, bis(4-acetamidophenyl)-1-(S)-prolylpyrrolidine-2-(R,S)-phosphonate]
[3]
  DPP4 activity in plasma: inhibited the activity of DPP4 in vivo in rats in a dose dependent manner; also recorded: inhibit DPP4 activity in vivo in a dose-dependent manner
